The nature of assay [1]: Trypanosoma cruzi growth suppression in host cells – NIH3T3 host cells, beta-gal luminescence, confirmation (AID 2044).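 Also: intracellular parasites grown in NIH/3T3 mouse fibroblasts as host cells; luminescent beta-galactosidase reporter signal from transgenic T. cruzi replicating inside host cells; inhibitors lower the luminescence signal.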 It counts as functional, cell-based.
Assay [2] in a line: NIH3T3 cell viability loss – ATP luminescence, mouse fibroblasts, counter-screen, dose response (AID 2010).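 Also: cells exposed to compound for about 90 hours before reading.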 Type of assay: functional, cell-based.
The target in a further assay is T1, Exodeoxyribonuclease V (Escherichia coli (strain K12), UniProt P04993+P07648+P08394).
T1 sequence (P04993 whole entry): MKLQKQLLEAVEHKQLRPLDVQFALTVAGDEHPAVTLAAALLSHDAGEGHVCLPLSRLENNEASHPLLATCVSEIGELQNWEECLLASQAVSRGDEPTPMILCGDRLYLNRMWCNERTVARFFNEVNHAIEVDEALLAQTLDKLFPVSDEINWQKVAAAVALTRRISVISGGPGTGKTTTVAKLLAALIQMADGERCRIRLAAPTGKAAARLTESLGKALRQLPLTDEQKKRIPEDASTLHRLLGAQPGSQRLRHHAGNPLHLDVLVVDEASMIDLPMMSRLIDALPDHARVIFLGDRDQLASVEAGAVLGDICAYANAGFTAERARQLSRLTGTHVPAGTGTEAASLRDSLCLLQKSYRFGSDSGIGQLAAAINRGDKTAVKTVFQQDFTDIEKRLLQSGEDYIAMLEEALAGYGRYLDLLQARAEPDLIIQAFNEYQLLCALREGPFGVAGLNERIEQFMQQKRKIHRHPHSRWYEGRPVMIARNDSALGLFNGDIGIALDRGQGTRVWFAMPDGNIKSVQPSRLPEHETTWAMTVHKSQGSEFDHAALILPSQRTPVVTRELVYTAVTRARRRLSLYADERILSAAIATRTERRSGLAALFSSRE
T1 sequence (P07648 whole entry): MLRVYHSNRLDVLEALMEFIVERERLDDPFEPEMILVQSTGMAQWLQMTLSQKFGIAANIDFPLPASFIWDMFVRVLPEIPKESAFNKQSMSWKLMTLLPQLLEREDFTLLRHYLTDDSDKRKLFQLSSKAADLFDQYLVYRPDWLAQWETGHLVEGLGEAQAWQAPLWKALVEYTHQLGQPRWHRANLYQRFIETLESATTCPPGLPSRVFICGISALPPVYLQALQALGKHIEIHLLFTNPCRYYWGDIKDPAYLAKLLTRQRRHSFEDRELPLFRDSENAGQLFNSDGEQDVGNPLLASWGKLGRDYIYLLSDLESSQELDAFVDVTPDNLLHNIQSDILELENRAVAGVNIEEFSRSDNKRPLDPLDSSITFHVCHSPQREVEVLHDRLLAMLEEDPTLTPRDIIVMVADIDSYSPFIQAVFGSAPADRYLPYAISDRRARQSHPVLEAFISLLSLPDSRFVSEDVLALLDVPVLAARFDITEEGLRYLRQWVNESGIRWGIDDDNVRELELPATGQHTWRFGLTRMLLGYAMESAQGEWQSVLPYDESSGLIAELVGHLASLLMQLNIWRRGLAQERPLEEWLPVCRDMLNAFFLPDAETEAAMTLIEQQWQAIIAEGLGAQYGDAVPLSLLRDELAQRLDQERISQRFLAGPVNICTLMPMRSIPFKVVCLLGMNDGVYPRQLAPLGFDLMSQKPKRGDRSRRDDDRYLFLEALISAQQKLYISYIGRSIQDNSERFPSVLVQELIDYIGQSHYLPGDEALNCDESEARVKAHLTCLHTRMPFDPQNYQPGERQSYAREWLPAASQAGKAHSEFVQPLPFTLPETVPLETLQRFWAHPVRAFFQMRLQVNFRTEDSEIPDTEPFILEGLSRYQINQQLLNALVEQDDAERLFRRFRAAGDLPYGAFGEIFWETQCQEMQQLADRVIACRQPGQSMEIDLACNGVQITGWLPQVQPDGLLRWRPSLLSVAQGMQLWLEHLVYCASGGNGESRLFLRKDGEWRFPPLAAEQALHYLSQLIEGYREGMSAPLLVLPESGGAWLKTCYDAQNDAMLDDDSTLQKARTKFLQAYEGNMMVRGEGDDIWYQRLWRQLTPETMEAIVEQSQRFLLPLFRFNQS
T1 sequence (P08394 whole entry): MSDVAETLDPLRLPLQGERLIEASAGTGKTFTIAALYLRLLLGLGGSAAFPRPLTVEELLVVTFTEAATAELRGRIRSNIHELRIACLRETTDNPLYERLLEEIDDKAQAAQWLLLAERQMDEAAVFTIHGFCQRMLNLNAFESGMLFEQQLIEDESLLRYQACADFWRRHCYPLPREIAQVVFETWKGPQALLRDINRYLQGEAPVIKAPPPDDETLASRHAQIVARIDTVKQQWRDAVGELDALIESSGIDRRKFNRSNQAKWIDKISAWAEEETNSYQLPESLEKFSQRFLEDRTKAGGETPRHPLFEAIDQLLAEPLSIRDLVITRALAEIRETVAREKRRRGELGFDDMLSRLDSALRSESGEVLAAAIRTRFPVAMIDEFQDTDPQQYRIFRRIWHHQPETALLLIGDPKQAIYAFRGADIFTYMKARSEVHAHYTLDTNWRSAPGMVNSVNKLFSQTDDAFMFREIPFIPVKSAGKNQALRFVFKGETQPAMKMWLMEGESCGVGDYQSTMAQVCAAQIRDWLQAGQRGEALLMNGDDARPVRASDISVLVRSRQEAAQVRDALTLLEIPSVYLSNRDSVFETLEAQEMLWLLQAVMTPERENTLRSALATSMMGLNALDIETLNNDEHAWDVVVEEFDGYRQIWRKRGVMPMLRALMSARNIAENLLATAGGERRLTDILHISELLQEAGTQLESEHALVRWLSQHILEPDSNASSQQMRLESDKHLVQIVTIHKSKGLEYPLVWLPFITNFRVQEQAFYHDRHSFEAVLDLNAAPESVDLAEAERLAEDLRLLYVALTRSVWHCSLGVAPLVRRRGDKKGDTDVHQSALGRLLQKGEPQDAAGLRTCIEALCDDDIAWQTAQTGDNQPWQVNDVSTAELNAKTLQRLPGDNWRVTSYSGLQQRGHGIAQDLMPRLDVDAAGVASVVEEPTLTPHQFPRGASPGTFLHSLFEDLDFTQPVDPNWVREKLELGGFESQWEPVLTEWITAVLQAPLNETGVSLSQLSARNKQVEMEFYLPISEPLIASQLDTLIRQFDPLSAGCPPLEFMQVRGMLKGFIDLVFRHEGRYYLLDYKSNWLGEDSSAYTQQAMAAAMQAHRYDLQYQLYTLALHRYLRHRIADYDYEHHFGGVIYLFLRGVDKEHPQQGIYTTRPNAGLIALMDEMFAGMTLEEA
Briefly: RecBCD inhibition via phage-restricted bacterial growth – absorbance, V66 E. coli, mutant T4 phage, counter-screen for AddAB inhibitor project, dose response (AID 492957). It counts as functional, cell-based, Escherichia coli str. K-12 substr. MG1655.

The test system of a further assay is Cryptococcus neoformans. Briefly: PubChem AID 686997. It counts as functional, organism-based.
A short description of assay [3]: Luminescence Cell-Based Dose Response HTS to Identify Inhibitors of 5'UTR Stem-Loop Driven Prion Protein mRNA Translation in H4 Neuroglioblastoma Cells. [Related pubchem assays: 1827 (Project Summary), 1813 (Primary HTS)]. Type of assay: functional.

By EC50 is commonly meant the concentration that produces a half-maximal response. For orientation: IC50 means the midpoint of a concentration-inhibition curve. What is called AC50 is the concentration giving half of the maximal activity seen.

Calls of active or inactive are those of the source. Rule as the data show it, for most assays here: actives have a measured EC50 and inactives only a lower limit.

In the case of `CCCCCCCCCCOC(=O)Cn1c(COc2ccccc2)[n+](C)c2ccccc21`, the EC50 in assay [1] is 1.6 µM (active); in assay [2] it was > 60 µM (not active).

For the molecule `COc1cc(-c2nnc(SCc3cc(=O)oc4cc(O)c(O)cc34)o2)cc(OC)c1OC`, on Exodeoxyribonuclease V, the IC50 was > 119 µM (inactive).

Consider `CCOC(=O)c1c(-c2ccc(-c3ccccc3)cc2)csc1NC(=O)CNCCN(C)C`, for which the AC50 in the assay on Cryptococcus neoformans is 20.9 µM (active). Also, in assay [3], the EC50 is 13.7 µM (active).

For the origin of these results see ChEMBL document CHEMBL1201862, “PubChem BioAssay data set” (2004).
